Measured values: PubChem BioAssay AID256 (DTP/NCI, 2004)
Several values for one entry are separate records, joined by “and”; a condition that tells them apart may be missing. Identical values can stand only once. Inconclusive results and toxic doses are left out.

Test system: CD2F1 mice, L1210 leukemia ip, survival T/C
Assay: NCI In Vivo Anticancer Drug Screen. Data for tumor model L1210 Leukemia (intraperitoneal) in CD2F1 (CDF1) mice
Conditions: higher = longer survival
Procedure, shortened: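 Vehicle-treated tumor-bearing mice served as controls (C) for compound-treated mice (T). Reported figure is T divided by C.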

[1] = endpoint: mean survival time, dose: 50.0 mg/kg/injection, schedule: Q01DX009 (ip), vehicle: saline with Tween-80
[2] = endpoint: mean survival time, dose: 100.0 mg/kg/injection, schedule: Q01DX009 (ip), vehicle: saline with Tween-80
[3] = endpoint: mean survival time, dose: 200.0 mg/kg/injection, schedule: Q01DX009 (ip), vehicle: saline with Tween-80
[4] = endpoint: mean survival time, dose: 100.0 mg/kg/injection, schedule: Q01DX001 (ip), vehicle: saline with Tween-80
[5] = endpoint: mean survival time, dose: 200.0 mg/kg/injection, schedule: Q01DX001 (ip), vehicle: saline with Tween-80
[6] = endpoint: mean survival time, dose: 400.0 mg/kg/injection, schedule: Q01DX001 (ip), vehicle: saline with Tween-80
[7] = endpoint: mean survival time, dose: 100.0 mg/kg/injection, schedule: Q04DX003 (ip), vehicle: saline with Tween-80
[8] = endpoint: mean survival time, dose: 200.0 mg/kg/injection, schedule: Q04DX003 (ip), vehicle: saline with Tween-80
[9] = endpoint: mean survival time, dose: 100.0 mg/kg/injection, schedule: Q01DX001 (ip), vehicle: saline
[10] = endpoint: mean survival time, dose: 200.0 mg/kg/injection, schedule: Q01DX001 (ip), vehicle: saline
[11] = endpoint: mean survival time, dose: 400.0 mg/kg/injection, schedule: Q01DX001 (ip), vehicle: saline
[12] = endpoint: mean survival time, dose: 100.0 mg/kg/injection, schedule: Q04DX002 (ip), vehicle: saline with Tween-80
[13] = endpoint: mean survival time, dose: 200.0 mg/kg/injection, schedule: Q04DX002 (ip), vehicle: saline with Tween-80
[14] = endpoint: mean survival time, dose: 400.0 mg/kg/injection, schedule: Q01DX009 (ip), vehicle: saline with Tween-80
[15] = endpoint: mean survival time, dose: 400.0 mg/kg/injection, schedule: Q04DX002 (ip), vehicle: saline with Tween-80
[16] = endpoint: mean survival time, dose: 12.5 mg/kg/injection, schedule: Q01DX009 (ip), vehicle: saline with Tween-80
[17] = endpoint: mean survival time, dose: 25.0 mg/kg/injection, schedule: Q01DX009 (ip), vehicle: saline with Tween-80
[18] = endpoint: mean survival time, dose: 0.78 mg/kg/injection, schedule: Q01DX009 (ip), vehicle: saline with Tween-80
[19] = endpoint: mean survival time, dose: 1.56 mg/kg/injection, schedule: Q01DX009 (ip), vehicle: saline with Tween-80
[20] = endpoint: median survival time, dose: 12.5 mg/kg/injection, schedule: Q01DX005 (ip), vehicle: saline with Tween-80
[21] = endpoint: median survival time, dose: 25.0 mg/kg/injection, schedule: Q01DX005 (ip), vehicle: saline with Tween-80
[22] = endpoint: median survival time, dose: 50.0 mg/kg/injection, schedule: Q01DX005 (ip), vehicle: saline with Tween-80
[23] = endpoint: median survival time, dose: 100.0 mg/kg/injection, schedule: Q01DX005 (ip), vehicle: saline with Tween-80
[24] = endpoint: median survival time, dose: 200.0 mg/kg/injection, schedule: Q01DX005 (ip), vehicle: saline with Tween-80

O=C(C=C(C(F)(F)F)C(F)(F)F)c1ccc(F)cc1
T/C (endpoint: mean survival time, dose: 100.0 mg/kg/injection, schedule: Q04DX003 (ip), vehicle: other): 88 % of control

[O-][n+]1ccccc1C[P+](c1ccccc1)(c1ccccc1)c1ccccc1
T/C (endpoint: mean survival time, dose: 12.5 mg/kg/injection, schedule: Q01DX009 (ip), vehicle: water): 101 % of control
T/C (endpoint: mean survival time, dose: 25.0 mg/kg/injection, schedule: Q01DX009 (ip), vehicle: water): 100 % of control
T/C (endpoint: mean survival time, dose: 50.0 mg/kg/injection, schedule: Q01DX009 (ip), vehicle: water): 105 % of control
T/C (endpoint: mean survival time, dose: 100.0 mg/kg/injection, schedule: Q01DX009 (ip), vehicle: water): 96 % of control

CCOC(=O)CN1C(=O)c2ccccc2C1=O
T/C (endpoint: mean survival time, dose: 12.5 mg/kg/injection, schedule: Q01DX009 (ip), vehicle: other): 97 % of control
T/C (endpoint: mean survival time, dose: 25.0 mg/kg/injection, schedule: Q01DX009 (ip), vehicle: other): 97 % of control
T/C (endpoint: mean survival time, dose: 50.0 mg/kg/injection, schedule: Q01DX009 (ip), vehicle: other): 98 % of control
T/C [1]: 88 % of control
T/C (endpoint: mean survival time, dose: 100.0 mg/kg/injection, schedule: Q01DX009 (ip), vehicle: other): 93 % of control
T/C [2]: 103 % of control
T/C (endpoint: mean survival time, dose: 200.0 mg/kg/injection, schedule: Q01DX009 (ip), vehicle: other): 97 % of control
T/C [3]: 92 % of control

COC(=O)C(C(=O)OC)(C(=O)OC)C(=O)c1ccccc1
T/C [4]: 104 % of control
T/C [5]: 96 % of control
T/C [6]: 93 % of control

O=C(O)C1(NO)CCCCC1
T/C (endpoint: mean survival time, dose: 12.5 mg/kg/injection, schedule: Q01DX009 (ip), vehicle: Klucel (hydroxypropylcellulose) (HPC)): 102 % of control
T/C (endpoint: mean survival time, dose: 25.0 mg/kg/injection, schedule: Q01DX009 (ip), vehicle: Klucel (hydroxypropylcellulose) (HPC)): 101 % of control
T/C (endpoint: mean survival time, dose: 50.0 mg/kg/injection, schedule: Q01DX009 (ip), vehicle: Klucel (hydroxypropylcellulose) (HPC)): 103 % of control
T/C (endpoint: mean survival time, dose: 100.0 mg/kg/injection, schedule: Q01DX009 (ip), vehicle: Klucel (hydroxypropylcellulose) (HPC)): 100 % of control
T/C (endpoint: mean survival time, dose: 200.0 mg/kg/injection, schedule: Q01DX009 (ip), vehicle: Klucel (hydroxypropylcellulose) (HPC)): 97 % of control
T/C (endpoint: mean survival time, dose: 400.0 mg/kg/injection, schedule: Q01DX009 (ip), vehicle: Klucel (hydroxypropylcellulose) (HPC)): 102 % of control

CSc1cc(=O)n(C2OC(COCc3ccccc3)C(OCc3ccccc3)C2OCc2ccccc2)c(=O)[nH]1 (centres undefined)
T/C (endpoint: mean survival time, dose: 100.0 mg/kg/injection, schedule: Q01DX005 (ip), vehicle: saline): 111 % of control
T/C (endpoint: mean survival time, dose: 200.0 mg/kg/injection, schedule: Q01DX005 (ip), vehicle: saline): 107 % of control

COc1cc(NS(C)(=O)=O)ccc1Nc1c2ccccc2nc2cc(C(F)(F)F)c(N)cc12
T/C (endpoint: mean survival time, dose: 200.0 mg/kg/injection, schedule: Q01DX001 (ip), vehicle: Klucel (hydroxypropylcellulose) (HPC)): 154 % of control
T/C (endpoint: mean survival time, dose: 400.0 mg/kg/injection, schedule: Q01DX001 (ip), vehicle: Klucel (hydroxypropylcellulose) (HPC)): 265 % of control

CC1CC[N-]CC1.CC1CC[N-]CC1.CC1CC[N-]CC1.CC1CC[N-]CC1.[Cl][Rh][Cl]
T/C (endpoint: mean survival time, dose: 50.0 mg/kg/injection, schedule: Q01DX009 (ip), vehicle: saline sonified): 97 % of control
T/C (endpoint: mean survival time, dose: 100.0 mg/kg/injection, schedule: Q01DX009 (ip), vehicle: saline sonified): 97 % of control
T/C [7]: 111 % of control
T/C [8]: 86 % of control

CCOC(=O)CN1C(=O)C(Cl)=C(Cl)C1=O
T/C (endpoint: mean survival time, dose: 12.5 mg/kg/injection, schedule: Q04DX003 (ip), vehicle: saline with Tween-80): 98 % of control

CC(=O)Nc1ccc2c(c1)C(=O)c1ccccc1-2
T/C (endpoint: mean survival time, dose: 50.0 mg/kg/injection, schedule: Q01DX001 (ip), vehicle: saline): 104 % of control
T/C [9]: 101 % of control
T/C (endpoint: mean survival time, dose: 100.0 mg/kg/injection, schedule: Q01DX009 (ip), vehicle: saline): 106 % of control
T/C (endpoint: mean survival time, dose: 100.0 mg/kg/injection, schedule: Q04DX003 (ip), vehicle: saline): 87 % of control
T/C [10]: 95 % of control
T/C (endpoint: mean survival time, dose: 200.0 mg/kg/injection, schedule: Q01DX009 (ip), vehicle: saline): 96 % of control
T/C (endpoint: mean survival time, dose: 200.0 mg/kg/injection, schedule: Q04DX003 (ip), vehicle: saline): 94 % of control
T/C [11]: 87 % of control
T/C (endpoint: mean survival time, dose: 400.0 mg/kg/injection, schedule: Q01DX009 (ip), vehicle: saline): 95 % of control
T/C (endpoint: mean survival time, dose: 400.0 mg/kg/injection, schedule: Q04DX003 (ip), vehicle: saline): 92 % of control

CCOC(=O)c1ccc(NC(=S)NC(=O)c2cccc(Br)c2)cc1
T/C [4]: 101 % of control and 112 % of control
T/C [2]: 92 % of control and 98 % of control
T/C [12]: 93 % of control
T/C [7]: 96 % of control
T/C [5]: 97 % of control and 101 % of control
T/C [3]: 94 % of control and 95 % of control
T/C [13]: 95 % of control
T/C [8]: 98 % of control
T/C [6]: 101 % of control
T/C [14]: 97 % of control and 106 % of control
T/C [15]: 96 % of control
T/C (endpoint: mean survival time, dose: 400.0 mg/kg/injection, schedule: Q04DX003 (ip), vehicle: saline with Tween-80): 93 % of control

O=C(Nc1ccccc1[N+](=O)[O-])OCc1ccccc1
T/C [12]: 95 % of control
T/C [13]: 91 % of control
T/C [15]: 91 % of control

Cc1ccc(Cl)cc1NC(=S)NC(=O)COc1ccccc1
T/C [16]: 98 % of control and 106 % of control
T/C [17]: 98 % of control
T/C (endpoint: mean survival time, dose: 25.0 mg/kg/injection, schedule: Q04DX003 (ip), vehicle: saline with Tween-80): 100 % of control
T/C (endpoint: mean survival time, dose: 50.0 mg/kg/injection, schedule: Q01DX001 (ip), vehicle: saline with Tween-80): 97 % of control
T/C (endpoint: mean survival time, dose: 50.0 mg/kg/injection, schedule: Q04DX003 (ip), vehicle: saline with Tween-80): 96 % of control
T/C [4]: 89 % of control
T/C [12]: 87 % of control
T/C [7]: 90 % of control
T/C [5]: 88 % of control
T/C [13]: 98 % of control

CCC(=O)OC1(c2ccccc2)CCN(C/C=C/c2ccc(F)cc2)CC1
T/C (endpoint: mean survival time, dose: 6.25 mg/kg/injection, schedule: Q01DX009 (ip), vehicle: saline with Tween-80): 98 % of control
T/C [16]: 98 % of control
T/C [17]: 110 % of control

CC(=O)OCC1OC(OC2C(COC(C)=O)OC(Sc3ccccc3)C(OC(C)=O)C2OC(C)=O)C(OC(C)=O)C(OC(C)=O)C1OC(C)=O (centres undefined)
T/C [18]: 105 % of control
T/C [19]: 101 % of control
T/C (endpoint: mean survival time, dose: 3.13 mg/kg/injection, schedule: Q01DX009 (ip), vehicle: saline with Tween-80): 101 % of control
T/C [2]: 95 % of control
T/C [3]: 98 % of control
T/C [14]: 93 % of control

CC12C(=O)OC(=O)C1(C)C1CCC2O1 (centres undefined)
T/C (endpoint: mean survival time, dose: 0.39 mg/kg/injection, schedule: Q01DX009 (ip), vehicle: saline with Tween-80): 94 % of control
T/C [18]: 98 % of control
T/C [19]: 105 % of control
T/C (endpoint: mean survival time, dose: 1.56 mg/kg/injection, schedule: Q04DX002 (ip), vehicle: saline with Tween-80): 92 % of control

Cc1cn2c(nc1=O)OC1C(O)C(CCl)OC12 (centres undefined)
T/C [20]: 103 % of control
T/C [21]: 96 % of control
T/C [22]: 103 % of control
T/C [23]: 95 % of control
T/C [24]: 94 % of control

COc1ccccc1NC(=O)Nc1ccc(Cl)cc1OC
T/C [12]: 87 % of control
T/C [13]: 94 % of control
T/C [15]: 97 % of control

CN(C)P(=O)(Oc1ccccc1)N(C)C
T/C [16]: 98 % of control and 100 % of control
T/C [17]: 95 % of control and 101 % of control
T/C [1]: 89 % of control and 96 % of control
T/C [2]: 94 % of control and 101 % of control
T/C [3]: 95 % of control and 96 % of control
T/C [14]: 93 % of control and 96 % of control

CC1(C)C(=O)C(Cl)C(c2ccccc2)=C1c1ccccc1 (centres undefined)
T/C [12]: 101 % of control
T/C [13]: 96 % of control
T/C [15]: 101 % of control

CSc1nc(NC2OC(CO)C(O)C(O)C2O)c(C(C)=O)c(=O)n1C (centres undefined)
T/C [20]: 98 % of control
T/C [21]: 98 % of control
T/C [22]: 97 % of control
T/C [23]: 100 % of control
T/C [24]: 88 % of control

O=C(O)CN(CC(=O)O)Cc1ccccc1
T/C [9]: 103 % of control
T/C [10]: 103 % of control
T/C [11]: 103 % of control
